Test results from the NIST ThermoML archive (doi:10.1016/j.jct.2004.11.001).
± gives the expanded uncertainty stated by the source.

Conditions: Liquid; for speed of sound: non intrusive technique with two piezoelectric transducers based on the time of flight

[2H]C([2H])([2H])C(=O)C([2H])([2H])[2H] [(D6)-2-propanone]
Conditions | mass density [kg/m3] | speed of sound [m/s]
288.2 K, 100 kPa | – | 1110.6 ± 4.5
288.2 K, 5020 kPa | – | 1140.7 ± 4.6
288.2 K, 10060 kPa | – | 1168.2 ± 4.7
288.2 K, 20010 kPa | – | 1218.6 ± 4.9
288.2 K, 30090 kPa | – | 1264.4 ± 5.1
288.2 K, 40050 kPa | – | 1302.9 ± 5.2
288.2 K, 49940 kPa | – | 1345.4 ± 5.4
288.2 K, 60000 kPa | – | 1382.2 ± 5.5
288.2 K, 70020 kPa | – | 1417.2 ± 5.7
288.2 K, 80060 kPa | – | 1450.1 ± 5.8
288.2 K, 90030 kPa | – | 1481.9 ± 5.9
288.2 K, 100110 kPa | – | 1512.5 ± 6.1
288.2 K, 110100 kPa | – | 1540.4 ± 6.2
288.2 K, 120100 kPa | – | 1568.3 ± 6.3
288.2 K, 130120 kPa | – | 1595.5 ± 6.4
288.2 K, 140000 kPa | – | 1620.6 ± 6.5
288.2 K, 150150 kPa | – | 1640.3 ± 6.6
288.2 K, 160030 kPa | – | 1664 ± 6.7
298.15 K, 100 kPa | 868 ± 0.22 | –
298.15 K, 5000 kPa | 873.51 ± 0.24 | –
298.15 K, 9920 kPa | 878.81 ± 0.25 | –
298.15 K, 14840 kPa | 883.83 ± 0.27 | –
298.15 K, 19760 kPa | 888.58 ± 0.29 | –
298.15 K, 24670 kPa | 893.11 ± 0.31 | –
298.15 K, 29590 kPa | 897.46 ± 0.33 | –
298.15 K, 34510 kPa | 901.62 ± 0.35 | –
298.15 K, 39430 kPa | 905.63 ± 0.38 | –
298.15 K, 44340 kPa | 909.51 ± 0.4 | –
298.15 K, 49260 kPa | 913.26 ± 0.42 | –
298.15 K, 54180 kPa | 916.86 ± 0.44 | –
298.15 K, 59100 kPa | 920.33 ± 0.47 | –
298.25 K, 100 kPa | – | 1071.6 ± 4.3
298.25 K, 5080 kPa | – | 1103.4 ± 4.4
298.25 K, 10170 kPa | – | 1131.8 ± 4.5
298.25 K, 20270 kPa | – | 1183.7 ± 4.8
298.25 K, 30000 kPa | – | 1229.6 ± 4.9
298.25 K, 40010 kPa | – | 1272.1 ± 5.1
298.25 K, 50020 kPa | – | 1312 ± 5.3
298.25 K, 60450 kPa | – | 1350.7 ± 5.4
298.25 K, 70020 kPa | – | 1383.8 ± 5.6
298.25 K, 80010 kPa | – | 1416.9 ± 5.7
298.25 K, 90200 kPa | – | 1443.5 ± 5.8
298.25 K, 100040 kPa | – | 1478.7 ± 5.9
298.25 K, 110070 kPa | – | 1507.6 ± 6.1
298.25 K, 120040 kPa | – | 1535.4 ± 6.2
298.25 K, 130020 kPa | – | 1561.1 ± 6.3
298.25 K, 140020 kPa | – | 1586.5 ± 6.4
298.25 K, 150120 kPa | – | 1611.2 ± 6.5
298.25 K, 159970 kPa | – | 1634.8 ± 6.6
303.16 K, 100 kPa | 861.61 ± 0.22 | –
303.16 K, 5000 kPa | 867.3 ± 0.23 | –
303.16 K, 9920 kPa | 872.78 ± 0.25 | –
303.16 K, 14840 kPa | 877.94 ± 0.27 | –
303.16 K, 19760 kPa | 882.84 ± 0.29 | –
303.16 K, 24670 kPa | 887.5 ± 0.31 | –
303.16 K, 29590 kPa | 891.96 ± 0.33 | –
303.16 K, 34510 kPa | 896.23 ± 0.35 | –
303.16 K, 39430 kPa | 900.35 ± 0.38 | –
303.16 K, 44340 kPa | 904.3 ± 0.4 | –
303.16 K, 49260 kPa | 908.1 ± 0.42 | –
303.16 K, 54180 kPa | 911.79 ± 0.44 | –
303.16 K, 59100 kPa | 915.34 ± 0.47 | –
308.2 K, 100 kPa | 855.39 ± 0.22 | –
308.2 K, 5000 kPa | 861.42 ± 0.23 | –
308.2 K, 9920 kPa | 867.11 ± 0.25 | –
308.2 K, 14840 kPa | 872.49 ± 0.27 | –
308.2 K, 19760 kPa | 877.58 ± 0.29 | –
308.2 K, 24670 kPa | 882.42 ± 0.31 | –
308.2 K, 29590 kPa | 887.02 ± 0.33 | –
308.2 K, 34510 kPa | 891.38 ± 0.35 | –
308.2 K, 39430 kPa | 895.65 ± 0.38 | –
308.2 K, 44340 kPa | 899.72 ± 0.4 | –
308.2 K, 49260 kPa | 903.62 ± 0.42 | –
308.2 K, 54180 kPa | 907.33 ± 0.44 | –
308.2 K, 59100 kPa | 910.94 ± 0.47 | –
308.22 K, 100 kPa | – | 1033.3 ± 4.2
308.22 K, 5040 kPa | – | 1063.2 ± 4.3
308.22 K, 10000 kPa | – | 1093.5 ± 4.4
308.22 K, 20090 kPa | – | 1147.9 ± 4.6
308.22 K, 29990 kPa | – | 1196.3 ± 4.8
308.22 K, 40040 kPa | – | 1240.8 ± 5
308.22 K, 50090 kPa | – | 1281.7 ± 5.1
308.22 K, 60060 kPa | – | 1319.5 ± 5.3
308.22 K, 70070 kPa | – | 1355 ± 5.4
308.22 K, 80090 kPa | – | 1388.6 ± 5.6
308.22 K, 89970 kPa | – | 1420.3 ± 5.7
308.22 K, 100070 kPa | – | 1450.8 ± 5.8
308.22 K, 110070 kPa | – | 1479.7 ± 5.9
308.22 K, 120060 kPa | – | 1507.5 ± 6.1
308.22 K, 130120 kPa | – | 1534.3 ± 6.2
308.22 K, 140080 kPa | – | 1559.4 ± 6.3
308.22 K, 150120 kPa | – | 1584 ± 6.4
308.22 K, 160000 kPa | – | 1607.2 ± 6.5
313.21 K, 100 kPa | 848.68 ± 0.22 | –
313.21 K, 5000 kPa | 855 ± 0.23 | –
313.21 K, 9920 kPa | 860.92 ± 0.25 | –
313.21 K, 14840 kPa | 866.48 ± 0.27 | –
313.21 K, 19760 kPa | 871.75 ± 0.29 | –
313.21 K, 24670 kPa | 876.72 ± 0.31 | –
313.21 K, 29590 kPa | 881.49 ± 0.33 | –
313.21 K, 34510 kPa | 886.02 ± 0.35 | –
313.21 K, 39430 kPa | 890.35 ± 0.38 | –
313.21 K, 44340 kPa | 894.51 ± 0.4 | –
313.21 K, 49260 kPa | 898.52 ± 0.42 | –
313.21 K, 54180 kPa | 902.37 ± 0.44 | –
